Test results as given in the C3SDB collision cross section collection.

Settings: instrument: TW, calibrated with polyalanine and drug standards

SMILES | collision cross section (N2) ([M+H]+) | collision cross section (N2) ([M+Na]+)
CC[C@H]1OC(=O)[C@H](C)[C@@H](O[C@H]2C[C@@](C)(OC)[C@@H](O)[C@H](C)O2)[C@H](C)[C@@H](O[C@@H]2O[C@H](C)C[C@H](N(C)C)[C@H]2O)[C@](C)(OC)C[C@@H](C)C(=O)[C@H](C)[C@@H](O)[C@]1(C)O [CLARITHROMYCIN] | 264.2 Å² | 
CCC(=O)O[C@]1(C(=O)CCl)[C@@H](C)C[C@H]2[C@@H]3CCC4=CC(=O)C=C[C@]4(C)[C@@]3(F)[C@@H](O)C[C@@]21C [CLOBETASOL PROPIONATE] | 205.1 Å² | 
CC(C)N=c1cc2n(-c3ccc(Cl)cc3)c3ccccc3nc-2cc1Nc1ccc(Cl)cc1 [CLOFAZIMINE] | 216.8 Å² | 
Oc1ccc(Cl)c2cccnc12 [CLOXYQUIN] | 129.5 Å² | 
C[C@H]1[C@H]2CC[C@H]3[C@@H]4CC=C5C[C@@H](N(C)C)CC[C@]5(C)[C@H]4CC[C@]23CN1C [CONESSINE] | 195.4 Å² | 
C[C@@H]1O[C@@H](O[C@H]2CC[C@]3(C=O)[C@H]4CC[C@]5(C)[C@@H](C6=CC(=O)OC6)CC[C@]5(O)[C@@H]4CC[C@]3(O)C2)[C@H](O)[C@H](O)[C@H]1O [CONVALLATOXIN] | 238.1 Å² | 
CN1C(=O)CC[C@H]1c1cccnc1 [COTININE] | 141.1 Å² | 
CC(=O)Oc1c(C)cccc1C(=O)O [CRESOPIRINE] | 129.1 Å² | 
Cc1c2oc3c(C)ccc(C(=O)N[C@@H]4C(=O)N[C@H](C(C)C)C(=O)N5CCC[C@H]5C(=O)N(C)CC(=O)N(C)[C@@H](C(C)C)C(=O)O[C@@H]4C)c3nc-2c(C(=O)N[C@@H]2C(=O)N[C@H](C(C)C)C(=O)N3CCC[C@H]3C(=O)N(C)CC(=O)N(C)[C@@H](C(C)C)C(=O)O[C@@H]2C)c(N)c1=O [DACTINOMYCIN] | 341.2 Å² | 
O=C1c2cccc(O)c2C(=O)c2c(O)cccc21 [DANTHRON] | 148.3 Å² | 
Nc1ccc(S(=O)(=O)c2ccc(N)cc2)cc1 [DAPSONE] | 151.7 Å² | 
CC(C)CCCC1(C)C=Cc2c(O)c3c(c(CCC(C)C)c2O1)OC12C(CC4CC1C(C)(C)OC2(CCC(C)C(=O)O)C4O)C3=O (stereo unspecified) [DECAHYDROGAMBOGIC ACID] | 251 Å² | 
CCCCCCCCCCOc1cc2c(=O)c(C(=O)OCC)c[nH]c2cc1OCC [DECOQUINATE] | 216.2 Å² | 
COc1cc2c(cc1OC)[C@@H]1C(=O)c3ccc4c(c3O[C@@H]1CO2)C=CC(C)(C)O4 [DEGUELIN(-)] | 194.2 Å² | 
C[C@H](CCC(=O)O)[C@H]1CC[C@H]2[C@@H]3C(=O)C[C@@H]4CC(=O)CC[C@]4(C)[C@H]3CC(=O)[C@]12C [DEHYDROCHOLIC ACID] |  | 192.1 Å²
C=C(C)C1Cc2c(ccc3c(=O)c4c(oc23)COc2cc(OC)c(OC)cc2-4)O1 (stereo unspecified) [DEHYDROROTENONE] | 192.3 Å² | 

SMILES | collision cross section (N2) ([M+H]+) | collision cross section (N2) ([M+Na]+)
COc1ccc(-c2cc(=O)c3c(O)c(OC)c(OC)c(OC)c3o2)cc1OC [DEMETHYLNOBILETIN] | 186.6 Å² | 
CC(=O)O[C@@H]1C[C@H]2C(C)(C)C(=O)C=C[C@]2(C)[C@H]2CC[C@]3(C)C(=CC(=O)O[C@H]3c3ccoc3)[C@@]21C [DEOXYGEDUNIN] | 206.3 Å² | 
CC(=O)O[C@H]1C[C@@H](OC(C)=O)C(C)(C)C2C[C@@H](OC(C)=O)[C@@]3(C)C4=CC(=O)O[C@@H](c5ccoc5)[C@]4(C)CCC3[C@]21C (stereo partly specified) [DEOXYKHIVORIN] | 224.9 Å² | 
COc1cc(OC)c2c(=O)c(-c3ccc4c(c3)OCO4)coc2c1 [DERRUSTONE] | 169.8 Å² | 
COC(=O)[C@@H]1OC(=O)C2OC23[C@@]1(C)CCC1[C@]2(C)C(C[C@@H](O)[C@]13C)C(C)(C)[C@H](OC(C)=O)C[C@@H]2OC(C)=O (stereo partly specified) [DESACETYL (7)KHIVORINIC ACID, METHYL ESTER] | 216.9 Å² | 
C[C@@H]1C[C@H]2[C@@H]3CCC4=CC(=O)C=C[C@]4(C)[C@@]3(F)[C@@H](O)C[C@]2(C)[C@@]1(O)C(=O)CO [DEXAMETHASONE] | 187.9 Å² | 
CC1=NS(=O)(=O)c2cc(Cl)ccc2N1 [DIAZOXIDE] | 143.7 Å² | 
CCCCOC(=O)c1ccccc1C(=O)OCCCC [DIBUTYL PHTHALATE] |  | 180.7 Å²
C/C=C(/C(=C/C)c1ccc(O)cc1)c1ccc(O)cc1 [DIENESTROL] |  | 153.2 Å²
CCCCCC1C(=O)CCC1CC(=O)O (stereo unspecified) [DIHYDROJASMONIC ACID] | 147 Å² | 
Cc1c(C(N)=O)cc([N+](=O)[O-])cc1[N+](=O)[O-] [DINITOLMIDE] | 143.7 Å² | 
COc1ccc(-c2cc(=O)c3c(O)cc(O)cc3o2)cc1O [DIOSMETIN] | 164.8 Å² | 
COc1ccc(-c2cc(=O)c3c(O)cc(O[C@@H]4O[C@H](CO[C@@H]5O[C@@H](C)[C@H](O)[C@@H](O)[C@H]5O)[C@@H](O)[C@H](O)[C@H]4O)cc3o2)cc1O [DIOSMIN] | 242.5 Å² | 
CC(=O)Oc1ccccc1C(=O)Oc1ccccc1C(=O)O [DIPLOSALSALATE] | 159.4 Å² | 
COc1ccc(-c2coc3c(O)c(O)c(OC)cc3c2=O)cc1 [DIPTERYXIN] | 168.5 Å² | 
